Assay results as given in ChEMBL document CHEMBL2417441, “Synthesis, structure, and cytotoxicity studies of some fungal isochromanes” (J Nat Prod, 2013).
Calls of active or inactive are those of the source. The rule behind the calls is not given here.

Tests used:
[1] = tested on: HCT-116; assay: Cytotoxicity against human HCT116 cells after 72 hrs by WST-8 assay; type: functional, cell-based; conditions: HCT-116, 72 h
[2] = tested on: HCT-116; assay: Induction of apoptosis in human HCT116 cells assessed as DNA fragmentation at 5 uM after 72 hrs by TUNEL assay; type: functional, cell-based
[3] = tested on: HCT-116; assay: Induction of apoptosis in human HCT116 cells at 5 uM after 72 hrs by fluorescence microscopic analysis relative to etoposide; type: functional

Row | Compound | IC50 [1] | Activity [2] | fold change (FC) [3]
1 | CO[C@H]1O[C@H](C)Cc2ccc3c(c21)OC(=C(C)C)C3=O [USTUSORANE C] | 5.9 µM | – | –
2 | CC(C)[C@@H]1Oc2c(ccc3c2[C@@H](O)O[C@H](C)C3)C1=O | > 100 µM | – | –
3 | CO[C@H]1O[C@H](C)Cc2ccc3c(c21)O[C@@H](C(C)C)C3=O (relative stereo) | > 100 µM | – | –
4 | CC(C)=C1Oc2c(ccc3c2C(=O)O[C@H](C)C3)C1=O | 9.8 µM | – | –
5 | C[C@@H](O)Cc1cccc(O)c1CO | > 100 µM | – | –
6 | CC(C)=C1Oc2c(ccc3c2[C@@H](O)O[C@H](C)C3)C1=O [(+)-PSEUDODEFLECTUSIN] | 5 µM | Active | 2
7 | CO[C@H]1O[C@H](C)Cc2ccc3c(c21)O[C@H](C(C)C)C3=O | > 100 µM | – | –
8 | CC(C)[C@H]1Oc2c(ccc3c2[C@@H](O)O[C@H](C)C3)C1=O | > 100 µM | – | –
9 | CC[C@@]1(O)C(=O)OCc2c1cc1n(c2=O)Cc2cc3ccccc3nc2-1 [CAMPTOTHECIN] | 0.016 µM | – | –
